From patent US11738088B2, “Boryl ethers, carbonates, and cyclic acetals as oxidatively-triggered drug delivery vehicles” (University of Pittsburgh—Of the Commonwealth System of …, priority 2016, dated 2023) come the findings set out here.

Where only a bound is given, the exact number is not on record here.

Data set [1] can be described thus: Oxidative breakdown with urea.H2O2 monitored by 1H NMR. Format: physicochemical. The note with it: for yield of released product (1H NMR vs internal standard) / half-life: 6-12 equiv H2O2.urea, pH 8.0, CD3CN:D2O 5:1, rt; for half-life: H2O2.urea (6-12 equiv) in CD3CN:D2O 5:1, read-out: t1/2 (substrate consumption); for oxidative breakdown / cargo release (in words): in the presence of H2O2. The procedure:
The oxidative breakdown of compounds 7 and 8 was achieved by subjecting them (˜25 mM) to urea.H2O2 (300 mM) in a mixture of CD3CN and aqueous (D2O) buffer (pH=8.0). The buffer was selected to mimic the experimentally determined pH of mitochondria in consideration of potential applications to mitigating neuronal oxidative stress. Initial experiments were conducted in a 5:1 ratio of CD3CN and buffer (Scheme 3). Reaction progress was monitored by ^1H NMR through following the disappearance of the signals for diastereotopic hydrogens from the methylene group in the starting materials and the appearance of the corresponding enantiotopic hydrogens in butanone. Conversions were calculated by comparison to the internal standard 1,2-dimethoxyethane.

Assay in data set [2]: as above
Format: physicochemical. The settings on record: urea.H2O2 300 mM.

Where [3] appears, read: ~25 mM substrate, urea.H2O2 300 mM, CD3CN:buffer 5:1, pH 8.0.

Regarding `CCC(C)(OCO[C@@H]1C[C@H](C)CC[C@H]1C(C)C)B1OC(C)(C)C(C)(C)O1` (some centres unmarked) [Compound 13], in data set [1], the “yield of released product (1H NMR vs internal standard)” value (“yield … (1H NMR vs internal standard)” for short) is given as 85%, the half-life was < 2 min and the “oxidative breakdown / cargo release (in words)” value is “released smoothly”.
With `COc1ccc([C@H]2OCC[C@](C)(B3OC(C)(C)C(C)(C)O3)O2)cc1` [Compound 28], in data set [1] (H2O2, pH 8.0), the “time for consumption of 50% of the starting material” value is ≤ 90 s; the “time to complete conversion” value is < 15 min; the “yield of anisaldehyde and 1-hydroxy-3-butanone” value is 94%.
Turning to `CCOC(C)(CCc1ccc(O[Si](C)(C)C(C)(C)C)cc1)B1OC(C)(C)C(C)(C)O1` (centres unmarked) [Compound 15], in data set [1], the “yield … (1H NMR vs internal standard)” value is 89% and the half-life is < 2 min.
The corresponding values for `CC(C)C(OC1CCCCC1)B1OC(C)(C)C(C)(C)O1` (centres unmarked) [Compound 19] are 83% and < 2 min.
The corresponding values for `CCC(C)(OCC(C)C)B1OC(C)(C)C(C)(C)O1` (centres unmarked) [Compound 17] are 89% and < 2 min.
As to `CCC(C)(OC(=O)c1ccccc1)B1OC(C)(C)C(C)(C)O1` (centres unmarked) [Compound 22], in data set [1], the “yield … (1H NMR vs internal standard)” value is 16% and the half-life was > 936 min.
For the compound `CCC(C)(OCOC1CCCCC1)B1OC(C)(C)C(C)(C)O1` (centres unmarked) [Compound 11], in data set [1], the “yield … (1H NMR vs internal standard)” value worked out at 84%, the half-life was < 2 min and the “oxidative breakdown / cargo release (in words)” value is “released smoothly”.
Take `CCC(C)(OC(=O)Oc1ccccc1)B1OC(C)(C)C(C)(C)O1` (centres unmarked) [Compound 8]: the results for the “time for consumption of 50% of the starting material” value in data set [2] (CD3CN:buffer 1:1) and in data set [1] (setting [3]) were ≤ 12 min and 1320 s, respectively. The “yield of the desired products” value amounted to 84% in data set [2] (CD3CN:buffer 1:1) and 84% in data set [1] (urea.H2O2 300 mM, CD3CN:buffer 5:1).
`Cc1c(C)c2c(c(C)c1OC(=O)OC(C)(CCO[Si](C)(C)C(C)(C)C)B1OC(C)(C)C(C)(C)O1)CCC(C)(C)O2` (centres unmarked) [Compound 20]: in data set [1], the “yield … (1H NMR vs internal standard)” value is given as 79%, the half-life was 90 min and the “oxidative breakdown / cargo release (in words)” value is on record as “somewhat slow”.
Consider `CCC(C)(OCOC)B1OC(C)(C)C(C)(C)O1` (centres unmarked) [Compound 7], for which the “NMR yield of butanone” value turned out to be 84% in data set [2] (CD3CN:buffer 1:1); 81% in data set [2] (pH 7.2); 79% in data set [1] (urea.H2O2 300 mM, CD3CN:buffer 5:1, pH 8.0). For the same compound, the “time for consumption of 50% of the starting material” value in data set [1] (setting [3]) is listed as “less than 2 min”.
For `CC1(B2OC(C)(C)C(C)(C)O2)CCOC(c2ccccc2)(c2ccccc2)O1` (centres unmarked) [Compound 29], the “oxidative breakdown / cargo release (in words)” value in data set [1] is “quickly and efficiently”.
